Results from patent publication US9789110B2, “Diacylglycerol acyltransferase 2 inhibitors” (PFIZER INC., priority 2014, dated 2017).

Biological target: hDGAT2 (Homo sapiens (Human), UniProt Q96PD7)
Experiment: In vitro DGAT2 assay, hDGAT2 membrane fraction, [14C]decanoyl-CoA scintillation readout
Type: biochemical
Conditions: geometric mean; FLAG-hDGAT2 membrane fraction; 2 h preincubation; read-out: IC50 for inhibition of DGAT2
Description: Recombinant baculovirus for the FLAG-tagged hDGAT2 was generated in SF9 insect cells using Bac-to-Bac baculovirus expression system (Invitrogen) according to the manufacturer's protocol. For the expression of hDGAT2, SF9 cells (20 L) grown in Sf90011 media were infected with hDGAT2 baculovirus at a multiplicity of infection of 1 in a Wave Bioreactor System 20/50P wave bag (GE Healthcare). After 40 hours of infection, the cells were then harvested by centrifugation at 5,000×g. The cell pellets were washed by resuspending in phosphate buffered saline (PBS) and collected by centrifugation at 5,000×g. The cell paste was flash frozen in liquid N2 and stored at −80° C. until needed. All operations below were at 4° C. unless otherwise noted. The cells were resuspended in lysis buffer (50 mM Tris-HCl, pH 8.0, 250 mM sucrose) including 1 mM ethylenediaminetetraacetic acid (EDTA) and the complete protease inhibitor cocktail (Roche Diagnostics) at a ratio of 3 ml buffer per 1 g cell paste. The cells were lysed by dounce homogenizer. The cell debris was removed by centrifugation at 1,000×g for 20 min, and the supernatant was centrifuged at 100,000×g for 1 hour. The resulting pellet was rinsed three times by filling ultracentrifuge tubes to the top with ice cold PBS before decanting. The washed pellet was resuspended with gentle stirring for 1 hour in lysis buffer containing 8 mM 3-[(3-cholamidopropyl)dimethylammonio]-1-propanesulfonate (CHAPS) at a ratio of 1 mL buffer per 1 g of original cell paste and centrifuged again at 100,000×g for 1 hour. The resulting supernatant was aliquotted, flash frozen in liquid N2, and stored at −80° C. until use.
For determination of IC50 values, the reactions were carried out in 384-well white Polyplates (Perkin Elmer) in a total volume of 20 μL. To […] compounds dissolved in 100% DMSO and spotted at the bottom of each well, 5 μL of 0.04% bovine serum albumin (BSA) (fatty acid free, Sigma Aldrich) was added and the mixture was incubated at room temperature for 20 minutes. To this mixture, 10 μL of hDGAT2 membrane fraction (0.01 mg/mL) diluted in 100 mM Hepes-NaOH, pH 7.4, 20 mM MgCl2 containing 200 nM methyl arachidonyl fluorophosphonate (Cayman Chemical; dried from ethyl acetate stock solution under argon gas and dissolved in DMSO as 5 mM stock) was added. After this mixture was preincubated at room temperature for 2 hours, DGAT2 reactions were initiated by the addition of 4 μL of substrates containing 30 μM [1-^14C]decanoyl-CoA (custom-synthesized by Perkin Elmer, 50 mCi/mmol) and 125 μM 1,2-didecanoyl-sn-glycerol (Avanti Polar Lipids) dissolved in 12.5% acetone. The reaction mixtures were incubated at room temperature for 40 min and the reactions were stopped by addition of 5 μL of 1% H3PO4. After the addition of 45 μL MicroScint-E (Perkin-Elmer), plates were sealed with Top Seal-A covers (Perkin-Elmer) and phase partitioning of substrates and products was achieved using a HT-91100 microplate orbital shaker (Big Bear Automation, Santa Clara, Calif.). Plates were centrifuged at 2,000×g for 1 min in an Allegra 6R Centrifuge (Beckman Coulter) and then were sealed again with fresh covers before reading in a 1450 Microbeta Wallac Trilux Scintillation Counter (Perkin Elmer). DGAT2 activity was measured by quantifying the generated product [^14C]tridecanoylglycerol in the upper organic phase.
Inhibitors were tested at eleven different concentrations to generate IC50 values for each compound.

hDGAT2, sequence (Q96PD7 whole entry): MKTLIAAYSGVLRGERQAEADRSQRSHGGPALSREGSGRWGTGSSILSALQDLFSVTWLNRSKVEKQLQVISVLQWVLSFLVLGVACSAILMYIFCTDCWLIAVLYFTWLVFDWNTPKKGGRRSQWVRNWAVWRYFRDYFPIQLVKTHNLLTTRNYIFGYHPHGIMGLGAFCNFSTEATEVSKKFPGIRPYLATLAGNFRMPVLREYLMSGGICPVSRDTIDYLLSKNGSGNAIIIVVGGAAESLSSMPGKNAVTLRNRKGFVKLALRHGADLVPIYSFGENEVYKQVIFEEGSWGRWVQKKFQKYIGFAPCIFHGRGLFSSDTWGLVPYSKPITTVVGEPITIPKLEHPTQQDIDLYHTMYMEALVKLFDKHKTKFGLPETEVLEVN

| Compound | IC50 |
| --- | --- |
| CCOc1ccccc1O[C@@H]1CCCN(c2ncc(C(=O)NCc3cccc(C(=O)O)c3OC)cn2)C1 [Example 14, (R)-3-((2-(3-(2-ethoxyphenoxy)piperidin-1-yl)pyrimidine-5-carboxamido)methyl)-2-methoxybenzoic acid] | 76.6 nM |
| CCOc1ccccc1O[C@@H]1CCCN(c2ncc(C(=O)N3CCOCC3)cn2)C1 [Example 19.1, (R)-(2-(3-(2-ethoxyphenoxy)piperidin-1-yl)pyrimidin-5-yl)(morpholino)methanone] | 22.6 nM |
| CCOc1ccccc1O[C@@H]1CCCN(c2ncc(C(=O)NCc3ccon3)cn2)C1 [Example 19.3, (R)-2-(3-(2-ethoxyphenoxy)piperidin-1-yl)-N-(isoxazol-3-ylmethyl)pyrimidine-5-carboxamide] | 10.8 nM |
| CCOc1ccccc1O[C@@H]1CCCN(c2ncc(C(=O)NCC3CC3)cn2)C1 [Example 19.4, (R)-N-(cyclopropylmethyl)-2-(3-(2-ethoxyphenoxy)piperidin-1-yl)pyrimidine-5-carboxamide] | 18.6 nM |
| CCOc1ccccc1O[C@@H]1CCCN(c2ncc(C(=O)NCC(=N)N)cn2)C1 [Example 19.5, (R)-N-(2-amino-2-iminoethyl)-2-(3-(2-ethoxyphenoxy)piperidin-1-yl)pyrimidine-5-carboxamide] | 124 nM |
| CCOc1ccccc1O[C@@H]1CCCN(c2ncc(C(=O)N3Cc4cnn(C)c4C3)cn2)C1 [Example 19.6, (R)-(2-(3-(2-ethoxyphenoxy)piperidin-1-yl)pyrimidin-5-yl)(1-methyl-4,6-dihydropyrrolo[3,4-c]pyrazol-5(1H)-yl)methanone] | 34.9 nM |
| CCOc1ccccc1O[C@@H]1CCCN(c2ncc(C(=O)NCc3ccccc3)cn2)C1 [Example 19.7, (R)-N-benzyl-2-(3-(2-ethoxyphenoxy)piperidin-1-yl)pyrimidine-5-carboxamide] | 4.3 nM |
| CCOc1ccccc1O[C@@H]1CCCN(c2ncc(C(=O)NCCS(C)(=O)=O)cn2)C1 [Example 19.8, (R)-2-(3-(2-ethoxyphenoxy)piperidin-1-yl)-N-(2-(methylsulfonyl)ethyl) pyrimidine-5-carboxamide] | 102 nM |
| CCOc1ccccc1O[C@@H]1CCCN(c2ncc(C(=O)N3CC(OC)C3)cn2)C1 [Example 19.9, (R)-(2-(3-(2-ethoxyphenoxy)piperidin-1-yl)pyrimidin-5-yl)(3-methoxyazetidin-1-yl)methanone] | 14.3 nM |
| CCOc1ccccc1O[C@@H]1CCCN(c2ncc(C(=O)NCCn3cncn3)cn2)C1 [Example 19.10, (R)-N-(2-(1H-1,2,4-triazol-1-yl)ethyl)-2-(3-(2-ethoxyphenoxy)piperidin-1-yl)pyrimidine-5-carboxamide] | 32.4 nM |
| CCOc1ccccc1O[C@@H]1CCCN(c2ncc(C(=O)N3CCC3)cn2)C1 [Example 19.11, (R)-azetidin-1-yl(2-(3-(2-ethoxyphenoxy)piperidin-1-yl)pyrimidin-5-yl)methanone] | 26.7 nM |
| CCOc1ccccc1O[C@@H]1CCCN(c2ncc(C(=O)N3Cc4ccccc4C3)cn2)C1 [Example 19.12, (R)-(2-(3-(2-ethoxyphenoxy)piperidin-1-yl)pyrimidin-5-yl)(isoindolin-2-yl)methanone] | 1.4 nM |
| CCOc1ccccc1O[C@@H]1CCCN(c2ncc(C(=O)N[C@H]3CNC(=O)C3)cn2)C1 [Example 19.13, 2-((R)-3-(2-ethoxyphenoxy)piperidin-1-yl)-N-((R)-5-oxopyrrolidin-3-yl)pyrimidine-5-carboxamide] | 46.7 nM |
| CCOc1ccccc1O[C@@H]1CCCN(c2ncc(C(=O)N3C[C@H]4C[C@@H]3CO4)cn2)C1 [Example 19.14, ((1R,4R)-2-oxa-5-azabicyclo[2.2.1]heptan-5-yl)(2-((R)-3-(2-ethoxyphenoxy)piperidin-1-yl)pyrimidin-5-yl)methanone] | 21.5 nM |
| CCOc1ccccc1O[C@@H]1CCCN(c2ncc(C(=O)NCc3cocn3)cn2)C1 [Example 19.15, (R)-2-(3-(2-ethoxyphenoxy)piperidin-1-yl)-N-(oxazol-4-ylmethyl)pyrimidine-5-carboxamide] | 11.2 nM |
| CCOc1ccccc1O[C@@H]1CCCN(c2ncc(C(=O)N[C@@H]3CNC(=O)C3)cn2)C1 [Example 19.16, 2-((R)-3-(2-ethoxyphenoxy)piperidin-1-yl)-N-((S)-5-oxopyrrolidin-3-yl)pyrimidine-5-carboxamide] | 122 nM |
| CCOc1ccccc1O[C@@H]1CCCN(c2ncc(C(=O)NC(C)(C)CC(N)=O)cn2)C1 [Example 19.17, (R)-N-(4-amino-2-methyl-4-oxobutan-2-yl)-2-(3-(2-ethoxyphenoxy)piperidin-1-yl)pyrimidine-5-carboxamide] | 12.2 nM |
| CCOc1ccccc1O[C@@H]1CCCN(c2ncc(C(=O)NCc3cnccn3)cn2)C1 [Example 19.18, (R)-2-(3-(2-ethoxyphenoxy)piperidin-1-yl)-N-(pyrazin-2-ylmethyl)pyrimidine-5-carboxamide] | 22.5 nM |
| CCOc1ccccc1O[C@@H]1CCCN(c2ncc(C(=O)Nc3ccon3)cn2)C1 [Example 19.19, (R)-2-(3-(2-ethoxyphenoxy)piperidin-1-yl)-N-(isoxazol-3-yl)pyrimidine-5-carboxamide] | 11.1 nM |
| CCOc1ccccc1O[C@@H]1CCCN(c2ncc(C(=O)Nc3cncnc3)cn2)C1 [Example 19.20, (R)-2-(3-(2-ethoxyphenoxy)piperidin-1-yl)-N-(pyrimidin-5-yl)pyrimidine-5-carboxamide] | 33.3 nM |
| CCOc1ccccc1O[C@@H]1CCCN(c2ncc(C(=O)NC3CCC3)cn2)C1 [Example 19.22, (R)-N-cyclobutyl-2-(3-(2-ethoxyphenoxy)piperidin-1-yl)pyrimidine-5-carboxamide] | 10.7 nM |
| CCOc1ccccc1O[C@@H]1CCCN(c2ncc(C(=O)NCCC(N)=O)cn2)C1 [Example 20.1, (R)-N-(3-amino-3-oxopropyl)-2-(3-(2-ethoxyphenoxy)piperidin-1-yl)pyrimidine-5-carboxamide] | 149 nM |
| CCOc1ccccc1O[C@@H]1CCCN(c2ncc(C(=O)NCCCc3nn[nH]n3)cn2)C1 [Example 20.2, (R)-N-(3-(2H-tetrazol-5-yl)propyl)-2-(3-(2-ethoxyphenoxy)piperidin-1-yl)pyrimidine-5-carboxamide] | 431 nM |
| CCOc1ccccc1O[C@@H]1CCCN(c2ncc(C(=O)N(C)C)cn2)C1 [Example 20.3, (R)-2-(3-(2-ethoxyphenoxy)piperidin-1-yl)-N,N-dimethylpyrimidine-5-carboxamide] | 104 nM |
| CCOc1ccccc1O[C@@H]1CCCN(c2ncc(C(=O)NCCC(=O)NC)cn2)C1 [Example 20.4, (R)-2-(3-(2-ethoxyphenoxy)piperidin-1-yl)-N-(3-(methylamino)-3-oxopropyl)pyrimidine-5-carboxamide] | 53.3 nM |
| CCOc1ccccc1O[C@@H]1CCCN(c2ncc(C(=O)NCC(=O)NC)cn2)C1 [Example 20.6, (R)-2-(3-(2-ethoxyphenoxy)piperidin-1-yl)-N-(2-(methylamino)-2-oxoethyl)pyrimidine-5-carboxamide] | 144 nM |
| CCOc1ccccc1O[C@@H]1CCCN(c2ncc(C(=O)N3CC(F)(F)C3)cn2)C1 [Example 20.7, (R)-(3,3-difluoroazetidin-1-yl)(2-(3-(2-ethoxyphenoxy)piperidin-1-yl)pyrimidin-5-yl)methanone] | 7.9 nM |
